Experiment [1] has as its system Schwann cells (cell line RT4-D6P2T). Description: WST-1 proliferation assay of Schwann cells in PA or collagen gels. The format is cell-based, rat. The conditions noted are these: for Schwann cell proliferation compared to backbone-PA gel: by 7 days of culture; for Schwann cell proliferation (viability measurements) compared to backbone-PA gel: day 1 of culture. How it is done: (§1) Cells were purchased from ATCC (cell line RT4-D6P2T) and cultured in Dulbecco's Modified Eagle's Medium (DMEM) with 10% fetal bovine serum (FBS). Cells were cultured to confluence, treated with 0.25% trypsin, centrifuged, and resuspended in PBS for a final concentration of 3500 cells/ml for WST-1 proliferation assays and 10,000 cells/ml for immunocytochemistry (ICC).
In order to synthesize the backbone-PA (consisting of only palmitoyl-VVAAEENH2) (SEQ ID NO: 3), the molecule was dissolved in aqueous 150 mM NaCl, 3 mM KCl, and NaOH solution to obtain a final 1 wt % solution at a pH between 7.2 and 7.4. In order to fabricate mixtures containing epitope-bearing PAs IKVAV (SEQ ID NO: 2) and RGDS (SEQ ID NO: 1) (consisting of palmitoyl-VVAAEE-NH2(SEQ ID NO: 3) with appended peptides, either RGDS (Arg-Gly-Asp-Ser) (SEQ ID NO: 1) or IKVAV (Ile-Lys-Val-Ala-Val) (SEQ ID NO: 2)), the backbone-PA was dissolved in aqueous 150 mM NaCl, 3 mM KCl, and NaOH solution to obtain a 1.33 wt % solution at a pH between 7.2 and 7.4. The epitope-containing PA was then dissolved with the same solution to obtain a 1 wt % solution at a pH between 7.2 and 7.4. The 1.33 wt % PA solution was then mixed in a 3:1 ratio with the 1% bioactive epitope solution creating a final bioactive PA solution of 1 wt % PA and 0.25 wt % bioactive epitope. The three resulting solutions (backbone-PA, RGDS-PA (SEQ ID NO: 1), and IKVAV-PA (SEQ ID NO: 2)) were then heated to 80° C. for 30 min in a water bath and left in the bath for slowcooling to 37° C. overnight (refs. 10,11; herein incorporated by reference in their entireties).
(§2) Following completion of the slow cooling, each of the PA solutions was mixed with Schwann cell suspension in a 4:1 ratio. A final cell density of 3500 cells/ml was used for the WST-1 proliferation assays and 10,000 cells/ml for immunocytochemistry studies.
(§3) A […] volume of gelling solution consisting of 20 mM CaCl2, 150 mM NaCl, and 3 mM KCl was pipetted onto a glass slide to form a thin film. The PA-Schwann cell suspensions were then pipetted in […] aliquots onto the thin film, instantly forming a string-like gel, with cells encapsulated within. These cell-embedded gels were maintained free floating in DMEM with 10% FBS in culture plates and incubated at 37° C. Medium was changed every 72 h.
(§4) Volumetric ratios of 1 ml HEPES, 10 ml 10XPBS, 87 ml Collagen 10 mg/mL, and 2 ml Schwann cell PBS suspension were combined and mixed gently. Final cell density of 3500 cells/ml was used for the WST-1 proliferation assays and 10,000 cells/ml, for immunocytochemistry studies. The mixture was then pipetted into a culture well (either a 96-well plate or 2-welled microscopy slides), and after 1 h of curing and solidification at 37° C., medium was added gently to the wells and changed every 3 days.
To evaluate the viability of cells within the gels, WST-1 reagent (Roche Applied Science, Indianapolis, Ind., USA) was used for each PA-cell and collagen gelecell complex. WST-1 assay has been widely used to measure cell proliferation. Aligned PA-cell gels along with collagen-cell gels were fabricated through the aforementioned methods at a final cell density of 3500 cells/ml. Gels were then cultured in 96-well plates for various time periods (days 1, 7, 14, and 21). Following each time point, gels were incubated for 90 min in medium containing 10% WST-1 assay reagent. Following incubation, […] of the conditioned medium were then transferred to a 96-well reading plate, and absorption values were read in a spectrophotometer at 450 nm. Measurements were repeated in sets of four.

Experiment [2] shares this test system. The experiment in a line: Immunocytochemistry of actin and vinculin (focal adhesion protein) of Schwann cells in gels. The format is cell-based, rat. The conditions noted are these: 48 h culture. The method, then:
as §1, §2, §3, §4
PA-cell gels along with collagen-cell gels were fabricated through the aforementioned methods at a final cell density of 10,000 cells/ml. […] Specimens were then viewed with confocal microscopy (Confocal SP1 MP-Inverted, Leica Microsystems Inc., Buffalo Grove, Ill.) using oil magnification, and images were recorded.

The star is where a group is joined. Palmitoyl = CCCCCCCCCCCCCCCC(=O)*

For the substance “IKVAV-PA: palmitoyl-VVAAEE-NH2 with appended IKVAV (Ile-Lys-Val-Ala-Val), mixed with backbone-PA: 1 wt % PA and 0.25 wt % bioactive epitope”, in experiment [1], the “Schwann cell proliferation compared to backbone-PA gel” value is given as “significantly higher” and the “Schwann cell proliferation (viability measurements) compared to backbone-PA gel” value was “proliferated more rapidly”. In experiment [1] (no significant expansion or contraction at day 21), the “day at which Schwann cell growth was maximal” value turned out to be 14 days. For the same substance, in experiment [2], the “actin appearance, RGDS-PA compared with IKVAV-PA gels” value was “no significant difference”.

For the substance “RGDS-PA: palmitoyl-VVAAEE-NH2 with appended RGDS (Arg-Gly-Asp-Ser), mixed with backbone-PA: 1 wt % PA and 0.25 wt % bioactive epitope”, in experiment [1], the “Schwann cell proliferation compared to backbone-PA gel” value is given as “significantly higher” and the “Schwann cell proliferation (viability measurements) compared to backbone-PA gel” value is “proliferated more rapidly”. Besides, the “time over which Schwann cell proliferation was statistically increased vs. backbone-PA” value in experiment [1] (p<0.05, ANOVA and Tukey-Kramer) was at most 21 days. In experiment [1] (through 21 days of culture), the “Schwann cell proliferation, rank among all groups” value is recorded as “highest among all groups”. Further, the “actin appearance, RGDS-PA compared with IKVAV-PA gels” value in experiment [2] is “no significant difference”.

Turning to “palmitoyl-VVAAEENH2 (Palmitoyl-VVAAEE-NH2) [backbone-PA]”, the “Schwann cell proliferation with time in gel” value in experiment [1] (days 1, 7, 14, 21) is “increasing proliferation with time”. Also, in experiment [2], the “spatial arrangement of cytoskeletal actin of Schwann cells (actin stain)” value is “marked linear arrangement”.

The values above are taken from US20170021056A1, “PEPTIDE AMPHIPHILE BIOMATERIALS FOR NERVE REPAIR” (Northwestern University, priority 2015, published 2017).
